Test results as given in ChEMBL document CHEMBL1155207, “Palbinone and triterpenes from Moutan Cortex (Paeonia suffruticosa, Paeoniaceae) stimulate glucose uptake and glycogen synthesis via activation of AMPK in insulin-resistant human HepG2 Cells” (Bioorg Med Chem Lett, 2009).
Calls of active or inactive are those of the source. No cut-off for these calls is given here.

Columns and labels:
HepG2 [1] = assay: Induction of glucose uptake in human HepG2 cells at 10 uM in presence of 33 mM […] by scintillation counting; type: functional, cell-based
[2] = Cytotoxicity against human HepG2 cells assessed as cell survival at 100 uM after 24 hrs by MTT assay; type: cell-based; settings: read-out: Survival
[3] = Cytotoxicity against human HepG2 cells assessed as cell survival at 10 uM after 24 hrs by MTT assay; type: cell-based; settings: read-out: Survival
[4] = Cytotoxicity against human HepG2 cells assessed as cell survival at 20 uM after 24 hrs by MTT assay; type: cell-based; settings: read-out: Survival
HepG2 [5] = assay: Increase in glycogen synthesis in human HepG2 cells assessed as incorporation of [14C]glucose in to cellular glycogen pools at 10 uM after 60 mins in presence of 33 mM glucose; type: functional, cell-based
[6] = target: Glycogen synthase kinase-3 beta (Homo sapiens) (UniProt P49841); assay: Induction of GSK3-beta phosphorylation in human HepG2 cells at 10 uM by Western blot analysis in presence of 33 mM glucose; type: cell-based
Chain of Glycogen synthase kinase-3 beta (Homo sapiens) (P49841 whole entry, looked up): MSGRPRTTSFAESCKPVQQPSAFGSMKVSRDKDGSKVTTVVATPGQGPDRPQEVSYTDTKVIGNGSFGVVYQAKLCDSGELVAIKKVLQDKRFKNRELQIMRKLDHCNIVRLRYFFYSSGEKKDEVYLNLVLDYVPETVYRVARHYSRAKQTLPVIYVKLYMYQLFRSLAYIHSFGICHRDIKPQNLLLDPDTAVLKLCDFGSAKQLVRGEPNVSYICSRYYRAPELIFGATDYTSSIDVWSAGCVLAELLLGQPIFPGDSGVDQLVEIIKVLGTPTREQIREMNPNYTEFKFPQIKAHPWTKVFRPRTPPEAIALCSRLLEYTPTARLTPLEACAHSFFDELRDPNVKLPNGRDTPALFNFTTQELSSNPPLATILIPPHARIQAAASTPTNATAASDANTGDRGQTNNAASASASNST

[7] = Cytotoxicity against human HepG2 cells assessed as cell survival at 5 uM after 24 hrs by MTT assay; type: cell-based; settings: read-out: Survival
[8] = target: T1, AMP-activated protein kinase, AMPK (Homo sapiens) (UniProt P54646+O43741+P54619+Q9UGJ0+Q9Y478+Q13131+Q9UGI9); assay: Induction of AMPK phosphorylation in human HepG2 cells at 10 uM by Western blot analysis in presence of 33 mM glucose; type: cell-based
[9] = target: T1, AMP-activated protein kinase, AMPK (Homo sapiens); assay: Induction of AMPK phosphorylation in human HepG2 cells by Western blot analysis in presence of 33 mM glucose; type: cell-based
HepG2 [10] = assay: Increase in glycogen synthesis in human HepG2 cells assessed as incorporation of [14C]glucose in to cellular glycogen pools at 1 uM after 60 mins in presence of 33 mM glucose; type: functional, cell-based
HepG2 [11] = assay: Induction of acetyl-coA carboxylase phosphorylation in human HepG2 cells by Western blot analysis in presence of 33 mM glucose; type: cell-based
HepG2 [12] = assay: Induction of glucose uptake in human HepG2 cells in presence of 33 mM […] by scintillation counting; type: functional, cell-based
[13] = target: Glycogen synthase kinase-3 beta (Homo sapiens) (UniProt P49841); assay: Induction of GSK3-beta phosphorylation in human HepG2 cells by Western blot analysis in presence of 33 mM glucose; type: cell-based

SMILES	Activity (HepG2 [1])	viability at 24 h, 100 µM [2] [%]	viability at 24 h, 10 µM [3] [%]	viability at 24 h, 20 µM [4] [%]	Activity (HepG2 [5])	Activity [6]	viability at 24 h, 5 µM [7] [%]	Activity [8]	Activity [9]	Activity (HepG2 [10])	Activity (HepG2 [11])	Activity (HepG2 [12])	Activity [13]
CC1(C)CC[C@]2(C(=O)O)CC[C@]3(C)C(=CC[C@@H]4[C@@]5(C)CC[C@H](O)C(C)(C)[C@@H]5CC[C@]43C)[C@@H]2C1 [OLEANOLIC_ACID]	Active	54.1	99.9	82.4	Active	Active	97.8	Active	–	–	–	–	–
CC1(C)[C@@H](O)CC[C@]2(C)[C@H]3C=CC4=C(O)C(=O)C(=O)[C@@]4(C)[C@]3(C)CC[C@@H]12 [PALBINONE]	Active	41.6	99.8	81.5	Active	Active	98.7	Active	Dose-dependent effect	Active	Dose-dependent effect	Dose-dependent effect	Dose-dependent effect
C=C1CC[C@]2(C(=O)O)CC[C@]3(C)C(=CC[C@@H]4[C@@]5(C)CC[C@H](O)[C@@](C)(CO)[C@@H]5CC[C@]43C)[C@@H]2C1	Active	65	96.7	84.6	Active	Active	100	Active	–	–	–	–	–
C=C(C)[C@@H]1CC[C@]2(C(=O)O)CC[C@]3(C)[C@H](CC[C@@H]4[C@@]5(C)CC[C@H](O)C(C)(C)[C@@H]5CC[C@]43C)[C@@H]12 [BETULINIC ACID]	Active	52.9	91.3	81.2	Active	Active	99.6	Active	–	–	–	–	–
CC[C@H](CC[C@@H](C)[C@H]1CC[C@H]2[C@@H]3CC=C4C[C@@H](O[C@@H]5O[C@H](CO)[C@@H](O)[C@H](O)[C@H]5O)CC[C@]4(C)[C@H]3CC[C@]12C)C(C)C [SITOGLUSIDE]	Active	66.3	92.8	82.7	Active	Active	99.9	Active	–	–	–	–	–
C[C@H]1[C@H](C)CC[C@]2(C(=O)O)CC[C@]3(C)C(=CC[C@@H]4[C@@]5(C)CC[C@H](O)C(C)(C)[C@@H]5CC[C@]43C)[C@H]12 [URSOLIC ACID]	Active	55.8	99.2	82	Active	Active	97.1	Active	–	–	–	–	–
CC[C@H](CC[C@@H](C)[C@H]1CC[C@H]2[C@@H]3CC=C4C[C@@H](O)CC[C@]4(C)[C@H]3CC[C@]12C)C(C)C [BETA-SITOSTEROL]	Active	57.8	99.7	82.3	Active	Active	98.8	Active	–	–	–	–	–
